Results on one molecule are retold here after article PMC5747364 (Science (New York, N.Y.), 2017).

The target of this experiment is T1, SAMTOR (Homo sapiens, UniProt Q1RMZ1).
T1 sequence (Q1RMZ1 1-405): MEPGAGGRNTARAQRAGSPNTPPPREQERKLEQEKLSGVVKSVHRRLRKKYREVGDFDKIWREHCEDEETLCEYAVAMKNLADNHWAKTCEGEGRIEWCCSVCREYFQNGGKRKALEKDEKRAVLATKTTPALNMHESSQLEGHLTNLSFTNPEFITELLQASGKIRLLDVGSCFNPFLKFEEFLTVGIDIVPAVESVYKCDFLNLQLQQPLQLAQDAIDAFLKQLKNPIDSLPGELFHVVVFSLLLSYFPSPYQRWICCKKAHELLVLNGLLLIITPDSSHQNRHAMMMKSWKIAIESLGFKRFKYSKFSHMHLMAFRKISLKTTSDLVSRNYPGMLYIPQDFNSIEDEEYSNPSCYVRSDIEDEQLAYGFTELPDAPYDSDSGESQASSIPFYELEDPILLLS
Description: competition binding against [3H]SAM on purified FLAG-SAMTOR. The note with it: competitive with [3H]SAM.

Structures are written as SMILES.

In the case of `Nc1ncnc2c1ncn2[C@@H]1O[C@H](CSCC[C@H](N)C(=O)O)[C@@H](O)[C@H]1O` [SAH], the Ki result is “SAMTOR can also bind S-adenosylhomocysteine (SAH), the demethylated form of SAM”.
